Test [1] has as its target T1, Human Recombinant Glucocorticoid Receptor (Homo sapiens, UniProt P04150).
T1 construct: This GR was a full-length steroid hormone receptor likely to be associated with heat-shock and other endogenous proteins; host or cells: baculovirus-infected insect cells
T1 sequence (P04150 1-777): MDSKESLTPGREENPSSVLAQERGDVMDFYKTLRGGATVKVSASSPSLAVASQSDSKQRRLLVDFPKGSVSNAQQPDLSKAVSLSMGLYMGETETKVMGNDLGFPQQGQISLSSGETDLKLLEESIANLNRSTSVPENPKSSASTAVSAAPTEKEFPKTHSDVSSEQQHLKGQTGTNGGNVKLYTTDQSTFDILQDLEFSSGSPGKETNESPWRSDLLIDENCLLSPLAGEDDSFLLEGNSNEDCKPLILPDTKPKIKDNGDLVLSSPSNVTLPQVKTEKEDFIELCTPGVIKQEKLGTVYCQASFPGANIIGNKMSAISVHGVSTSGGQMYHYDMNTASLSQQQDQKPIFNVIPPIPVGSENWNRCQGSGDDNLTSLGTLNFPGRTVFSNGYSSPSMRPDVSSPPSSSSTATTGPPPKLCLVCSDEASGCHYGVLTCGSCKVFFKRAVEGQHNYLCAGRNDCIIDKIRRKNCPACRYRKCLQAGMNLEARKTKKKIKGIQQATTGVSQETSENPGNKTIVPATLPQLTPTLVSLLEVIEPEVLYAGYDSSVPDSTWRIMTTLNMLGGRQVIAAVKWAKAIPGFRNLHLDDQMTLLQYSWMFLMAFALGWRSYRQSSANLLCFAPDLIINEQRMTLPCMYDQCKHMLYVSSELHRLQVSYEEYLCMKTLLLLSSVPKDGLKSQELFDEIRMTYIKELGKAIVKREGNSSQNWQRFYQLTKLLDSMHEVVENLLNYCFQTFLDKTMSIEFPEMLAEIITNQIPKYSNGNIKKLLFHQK
The test is described as follows: Glucocorticoid receptor binding displacement assay with 3H-dexamethasone. To be noted: displacement of 2.5 nM 3H-dexamethasone; Ki from IC50 by Cheng-Prusoff; read-out: GR Binding Ki.

Test [2] addresses T2, glucocorticoid receptors (GR) in SW1353/MMTV-5 cells (Homo sapiens, UniProt P04150).
T2 construct: contains endogenous glucocorticoid receptors; endogenous in cells; host or cells: SW1353/MMTV-5 (human chondrosarcoma, stably transfected with the pMAMneo-Luc reporter only)
T2 sequence (P04150 1-777): T1 sequence (P04150 1-777)
The test is described as follows: GR functional assay using SW1353/MMTV-5 cells (MMTV-luciferase reporter). Type of test: cell-based. The essentials:
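Human chondrosarcoma line stably carrying firefly luciferase under an MMTV LTR glucocorticoid-responsive element, with endogenous GR. Cells were plated in 96-well plates and held 24 hrs in geneticin-free medium without CO2.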

Ki data for 19 molecules are collected here from patent publication US8598154B2 (Corcept Therapeutics, Inc., priority 2010, dated 2013).

Structures are written as SMILES.

As a reminder, the Ki is a dissociation constant, usually derived from enzyme kinetics or from competition with a known ligand. Turning to `COC[C@]12Cc3cnn(-c4ccc(F)cc4)c3C=C1CCN(S(=O)(=O)c1cncc(N3CC[C@H](F)C3)c1)C2` [Example 41, (R)-1-(4-Fluorophenyl)-6-[5-((S)-3-fluoropyrrolidin-1-yl)-pyridine-3-sulfonyl]-4a-methoxymethyl-4,4a,5,6,7,8-hexahydro-1H-1,2,6-triaza-cyclopenta[b]naphthalene], the results for the Ki in test [1] and in test [2] were 0.5 to 1 nM and less than 10 nM, respectively.
For `COC[C@]12Cc3cnn(-c4ccc(F)cc4)c3C=C1CCN(S(=O)(=O)c1ccnc(N3CCCC3)c1)C2` [Example 42, (R)-1-(4-Fluorophenyl)-4a-methoxymethyl-6-(2-pyrrolidin-1-yl-pyridine-4-sulfonyl)-4,4a,5,6,7,8-hexahydro-1H-1,2,6-triaza-cyclopenta[b]naphthalene] the same measures were greater than 1 nM and less than 10 nM.
For `COC[C@]12Cc3cnn(-c4ccc(F)cc4)c3C=C1CCN(S(=O)(=O)c1ccnc(N3CC[C@@H](O)C3)c1)C2` [Example 43, (R)-1-{4-[(R)-1-(4-Fluorophenyl)-4a-methoxymethyl-1,4,4a,5,6,7,8-hexahydro-1,2,6-triaza-cyclopenta[b]naphthalene-6-sulfonyl]-pyridin-2-yl}-pyrrolidin-3-ol] the same measures were greater than 1 nM and greater than 50 nM.
For `COC[C@]12Cc3cnn(-c4ccc(F)cc4)c3C=C1CCN(S(=O)(=O)c1ccnc(N3CC[C@H](O)C3)c1)C2` [Example 44, (S)-1-{4-[(R)-1-(4-Fluorophenyl)-4a-methoxymethyl-1,4,4a,5,6,7,8-hexahydro-1,2,6-triaza-cyclopenta[b]naphthalene-6-sulfonyl]-pyridin-2-yl}-pyrrolidin-3-ol], in that order: greater than 1 nM and greater than 50 nM.
For the molecule `CN(CCO)C[C@]12Cc3cnn(-c4ccc(F)cc4)c3C=C1CCN(S(=O)(=O)c1ccc(N3CCOCC3)nc1)C2` [Example 45, 2-{[(S)-1-(4-Fluorophenyl)-6-[6-morpholin-4-yl-pyridine-3-sulfonyl)-1,4,5,6,7,8-hexahydro-1,2,6-triaza-cyclopenta[b]naphthalene-4a-ylmethyl]-methyl-amino}-ethanol], the results for the Ki in test [1] and in test [2] were greater than 1 nM and 10 to 50 nM, respectively.
For `O=S(=O)(c1ccc(N2CC[C@@H](F)C2)nc1)N1CCC2=Cc3c(cnn3-c3ccc(F)cc3)C[C@]2(CN2CC[C@H](O)C2)C1` [Example 47, (S)-1-{(S)-1-(4-Fluorophenyl)-6-[6-((R)-3-fluoro-pyrrolidin-1-yl)-pyridine-3-sulfonyl]-1,4,5,6,7,8-hexahydro-1,2,6-triaza-cyclopenta[b]naphthalene-4a-ylmethyl}-pyrrolidin-3-ol] the same measures were greater than 1 nM and greater than 50 nM.
For `CCOC(=O)[C@]12Cc3cnn(-c4ccc(F)cc4)c3C=C1CCN(S(=O)(=O)c1ccc(N3CCOCC3)nc1)C2` [Example 48, (R)-1-(4-Fluorophenyl)-6-(6-morpholin-4-yl-pyridine-3-sulfonyl]-1,4,5,6,7,8-hexahydro-1,2,6-triaza-cyclopenta[b]naphthalene-4a-carboxylic acid ethyl ester], in that order: 0.5 to 1 nM and 10 to 50 nM.
For `CC(C)OC(=O)[C@]12Cc3cnn(-c4ccc(F)cc4)c3C=C1CCN(S(=O)(=O)c1ccc(N3CCOCC3)nc1)C2` [Example 49, (R)-1-(4-Fluorophenyl)-6-(6-morpholin-4-yl-pyridine-3-sulfonyl]-1,4,5,6,7,8-hexahydro-1,2,6-triaza-cyclopenta[b]naphthalene-4a-carboxylic acid isopropyl ester] the same measures were less than 0.5 nM and 10 to 50 nM.
In the case of `O=C(OC1CCC1)[C@]12Cc3cnn(-c4ccc(F)cc4)c3C=C1CCN(S(=O)(=O)c1ccc(N3CCOCC3)nc1)C2` [Example 50, (R)-1-(4-Fluorophenyl)-6-(6-morpholin-4-yl-pyridine-3-sulfonyl]-1,4,5,6,7,8-hexahydro-1,2,6-triaza-cyclopenta[b]naphthalene-4a-carboxylic acid cyclobutyl ester], the Ki in test [1] is 0.5 to 1 nM; in test [2], less than 10 nM.
For `O=C(OCC1CC1)[C@]12Cc3cnn(-c4ccc(F)cc4)c3C=C1CCN(S(=O)(=O)c1ccc(N3CCOCC3)nc1)C2` [Example 51, (R)-1-(4-Fluorophenyl)-6-(6-morpholin-4-yl-pyridine-3-sulfonyl]-1,4,5,6,7,8-hexahydro-1,2,6-triaza-cyclopenta[b]naphthalene-4a-carboxylic acid cyclopropylmethyl ester], the Ki in test [1] is 0.5 to 1 nM; in test [2] it was less than 10 nM.
Regarding `O=C(OCC1CCC1)[C@]12Cc3cnn(-c4ccc(F)cc4)c3C=C1CCN(S(=O)(=O)c1ccc(N3CCOCC3)nc1)C2` [Example 52, (R)-1-(4-Fluorophenyl)-6-(6-morpholin-4-yl-pyridine-3-sulfonyl]-1,4,5,6,7,8-hexahydro-1,2,6-triaza-cyclopenta[b]naphthalene-4a-carboxylic acid cyclobutylmethyl ester], the results for the inhibition constant Ki in test [1] and in test [2] were 0.5 to 1 nM and less than 10 nM, respectively.
For `O=C(OCC1CC(O)C1)[C@]12Cc3cnn(-c4ccc(F)cc4)c3C=C1CCN(S(=O)(=O)c1ccc(N3CCOCC3)nc1)C2` (stereo partly drawn) [Example 53, (R)-1-(4-Fluorophenyl)-6-(6-morpholin-4-yl-pyridine-3-sulfonyl]-1,4,5,6,7,8-hexahydro-1,2,6-triaza-cyclopenta[b]naphthalene-4a-carboxylic acid 3-hydroxycyclobutylmethyl ester] the same measures were greater than 1 nM and 10 to 50 nM.
Take `CC1(COC(=O)[C@]23Cc4cnn(-c5ccc(F)cc5)c4C=C2CCN(S(=O)(=O)c2ccc(N4CCOCC4)nc2)C3)COC1` [Example 54, (R)-1-(4-Fluorophenyl)-6-(6-morpholin-4-yl-pyridine-3-sulfonyl]-1,4,5,6,7,8-hexahydro-1,2,6-triaza-cyclopenta[b]naphthalene-4a-carboxylic acid 3-methyloxetan-3-ylmethyl ester]: the figures for the Ki in test [1] and in test [2] were greater than 1 nM and greater than 50 nM, respectively.
Take `O=C(OCCO)[C@]12Cc3cnn(-c4ccc(F)cc4)c3C=C1CCN(S(=O)(=O)c1ccc(N3CCOCC3)nc1)C2` [Example 55, (R)-1-(4-Fluorophenyl)-6-(6-morpholin-4-yl-pyridine-3-sulfonyl]-1,4,5,6,7,8-hexahydro-1,2,6-triaza-cyclopenta[b]naphthalene-4a-carboxylic acid 2-hydroxethyl ester]: the Ki in test [1] was greater than 1 nM; in test [2], greater than 50 nM.
For `CN(C)CCOC(=O)[C@]12Cc3cnn(-c4ccc(F)cc4)c3C=C1CCN(S(=O)(=O)c1ccc(N3CCOCC3)nc1)C2` [Example 56, (R)-1-(4-Fluorophenyl)-6-(6-morpholin-4-yl-pyridine-3-sulfonyl]-1,4,5,6,7,8-hexahydro-1,2,6-triaza-cyclopenta[b]naphthalene-4a-carboxylic acid 2-dimethylaminoethyl ester] the same measures were greater than 1 nM and greater than 50 nM.
For `Cc1cc(COC(=O)[C@]23Cc4cnn(-c5ccc(F)cc5)c4C=C2CCN(S(=O)(=O)c2ccc(N4CCOCC4)nc2)C3)no1` [Example 57, (R)-1-(4-Fluorophenyl)-6-(6-morpholin-4-yl-pyridine-3-sulfonyl]-1,4,5,6,7,8-hexahydro-1,2,6-triaza-cyclopenta[b]naphthalene-4a-carboxylic acid 5-methylisoxazol-3-ylmethyl ester] the same measures were 0.5 to 1 nM and 10 to 50 nM.
For the molecule `O=C(OCC1CC1)[C@]12Cc3cnn(-c4ccc(F)cc4)c3C=C1CCN(S(=O)(=O)c1ccc(C(F)(F)F)nc1)C2` [Example 58], the inhibition constant (Ki) in test [1] was 0.5 to 1 nM; in test [2], less than 10 nM.
For `COc1ccc(S(=O)(=O)N2CCC3=Cc4c(cnn4-c4ccc(F)cc4)C[C@]3(C(=O)OCC3CCC3)C2)cn1` [Example 59, (R)-1-(4-Fluorophenyl)-6-(6-methoxypyridine-3-sulfonyl)-1,4,5,6,7,8-hexahydro-1,2,6-triaza-cyclopenta[b]naphthalene-4a-carboxylic acid cyclobutylmethyl ester] the same measures were 0.5 to 1 nM and less than 10 nM.
With `Cc1cc(COC(=O)[C@]23Cc4cnn(-c5ccc(F)cc5)c4C=C2CCN(S(=O)(=O)c2ccc(N4CC[C@@H](F)C4)nc2)C3)no1` [Example 60, (R)-1-(4-Fluorophenyl)-6-[6-((R)-3-fluoropyrrolidin-1-yl)-pyridine-3-sulfonyl]-1,4,5,6,7,8-hexahydro-1,2,6-triaza-cyclopenta[b]naphthalene-4a-carboxylic acid 5-methylisoxazol-3-ylmethyl ester], the Ki was in the range of 0.5 to 1 nM in test [1] and 10 to 50 nM in test [2].
